This is an account of results in US20230009608A1, “GRK2 INHIBITORS AND USES THEREOF” (Cygnal Therapeutics, Inc., priority 2020, published 2023).

A value given as a limit tells only on which side of the number the result lay.

Assay [1] has as its system PAXF1657 control empty vector cell line. The assay is described as follows: 7-day proliferation assay, PAXF1657 control empty vector cell line (Example 9). Format: cell-based. The note with it: 168 h; Cell Line: PAXF1657 empty vector (EV) cell line; 7-day; read-out: C: 7-day proliferation assay: IC50 GeoMean. A digest of the protocol:
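PAXF1657 isogenic lines (GRK2-overexpressing vs empty vector; CRISPR GRK2 knockout vs non-targeting control clones) seeded 500 cells/well in RPMI1640/10% FBS and treated next day with 10-point dilutions, 30 μM-0.0002 μM final, 0.3% DMSO. Media with compound refreshed after 3 days; viability read by CellTiter-Glo luminescence at day 7.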

The next assay deals with T1, GRK2 (Homo sapiens, UniProt P25098).
T1 construct: purchased SignalChem A14-10G
T1 sequence (P25098 1-689): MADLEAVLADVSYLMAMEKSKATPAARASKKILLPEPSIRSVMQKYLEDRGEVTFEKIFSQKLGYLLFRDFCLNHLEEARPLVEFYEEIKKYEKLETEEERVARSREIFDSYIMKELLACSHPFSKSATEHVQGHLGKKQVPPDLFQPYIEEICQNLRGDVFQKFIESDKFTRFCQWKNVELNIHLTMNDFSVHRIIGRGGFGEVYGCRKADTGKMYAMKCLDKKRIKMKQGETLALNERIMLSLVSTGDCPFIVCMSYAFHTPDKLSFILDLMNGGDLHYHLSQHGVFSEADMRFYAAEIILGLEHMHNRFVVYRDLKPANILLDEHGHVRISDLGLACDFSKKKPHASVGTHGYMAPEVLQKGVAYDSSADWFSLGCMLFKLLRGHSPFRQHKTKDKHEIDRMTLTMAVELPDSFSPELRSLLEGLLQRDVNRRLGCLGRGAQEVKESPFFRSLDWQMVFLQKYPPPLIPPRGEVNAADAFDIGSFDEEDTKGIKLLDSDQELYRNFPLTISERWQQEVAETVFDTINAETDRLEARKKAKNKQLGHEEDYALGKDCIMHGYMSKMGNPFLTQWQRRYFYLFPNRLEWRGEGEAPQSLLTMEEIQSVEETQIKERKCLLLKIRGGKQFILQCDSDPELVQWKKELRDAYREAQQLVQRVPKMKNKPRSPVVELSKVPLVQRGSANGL
Put plainly: ADPGlo GRK2 Inhibition Assay (Example 8). The format is biochemical. The note with it: Enzyme Assay A, ADPGlo (Example 8); read-out: A: Enzymatic GRK2: IC50 (nM) (Example 8). Put shortly:
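GRK2 (15 nM 2× enzyme solution) was preincubated 15 min with compound, then reacted 180 min at room temperature with 2× mix of 20 μM ATP plus GRKtide in HEPES pH 7.5, MgCl2, Tween-20, DTT. ADP was detected by ADP-Glo luminescence. Percent inhibition was normalised to enzyme and no-enzyme controls, with dose-response curves from threefold dilutions starting at 100 μM.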

In the case of `Cn1c(CNc2cccc(C(=O)NC3(c4ccccc4)CC3)c2)nnc1-c1ccncn1`, the IC50 in assay [1] is more than 10000 nM; at GRK2 it was 34 nM.
For `Cn1ncc(Br)c1CNC(=O)c1cccc(NCc2nnc(-c3ccncn3)n2C)c1`, the IC50 in assay [1] was more than 10000 nM; on GRK2 it was 22 nM.
The like results for `Cn1c(CNc2cccc(C(=O)NCc3cnccc3C(F)(F)F)c2)nnc1-c1ccncn1` were, in that order, more than 10000 nM and 39 nM.
For the compound `COc1cccc(F)c1CNC(=O)c1cccc(NCc2nnc(-c3ccncn3)n2C)c1`, the IC50 in assay [1] was 149 nM; on GRK2, 16 nM.
Consider `Cn1c(CNc2cccc(C(=O)NCc3c(Cl)cncc3Cl)c2)nnc1-c1ccncn1`, for which the IC50 in assay [1] came out at 4320 nM; at GRK2, 31 nM.
On to `Cn1c(CNc2cccc(C(=O)NCc3ccncc3C(F)(F)F)c2)nnc1-c1ccncn1`, for which the IC50 in assay [1] was more than 10000 nM; at GRK2, 33 nM.
For `Cc1cnc(CNC(=O)c2cccc(NCc3nnc(-c4ccncn4)n3C)c2)c(C)c1`, the IC50 in assay [1] was more than 10000 nM; on GRK2 it was 10 nM.
In the case of `COc1cccc(CNC(=O)c2cccc(NCc3nnc(-c4ccncn4)n3C)c2)c1`, the IC50 in assay [1] is more than 30000 nM; at GRK2 it was 22 nM.
The like results for `CC(C)c1ocnc1CNC(=O)c1cccc(NCc2nnc(-c3ccncn3)n2C)c1` were, in that order, more than 10000 nM and 350 nM.
With `COc1ccccc1[C@H](C)NC(=O)c1cccc(NCc2nnc(-c3ccncn3)n2C)c1`, the figures for the IC50 (in assay [1]; on GRK2) were more than 10000 nM and 94 nM, respectively.
The like results for `CC(NC(=O)c1cccc(NCc2nnc(-c3ccncn3)n2C)c1)c1ccsc1` (stereo not drawn) were, in that order, more than 10000 nM and 4.9 nM.
Turning to `Cn1c(CNc2cccc(C(=O)NCc3c(F)cccc3-n3cccn3)c2)nnc1-c1ccncn1`, the IC50 is more than 10000 nM in assay [1] and 24 nM on GRK2.
For `COC[C@H](NC(=O)c1cccc(NCc2nnc(-c3ccncn3)n2C)c1)c1ccccn1`, the IC50 in assay [1] is more than 10000 nM; on GRK2, 54 nM.
In the case of `Cn1c(CNc2cccc(C(=O)NCc3ccccc3CN3CCCC3=O)c2)nnc1-c1ccncn1`, the figures for the IC50 (in assay [1]; on GRK2) were more than 10000 nM and 49 nM, respectively.
The like results for `C[C@H](NC(=O)c1cccc(NCc2nnc(-c3ccncn3)n2C)c1)c1cncs1` were, in that order, more than 10000 nM and 410 nM.
The corresponding values for `Cn1c(CNc2cccc(C(=O)N[C@H]3CCOc4c(F)cccc43)c2)nnc1-c1ccncn1` are 1230 nM and 11 nM.
Take `Cn1c(CNc2cccc(C(=O)NCc3cccc(C(F)F)c3)c2)nnc1-c1ccncn1`: the IC50 was more than 10000 nM in assay [1] and 22 nM on GRK2.
`Cn1c(CNc2cccc(C(=O)NCc3ccccc3)c2)nnc1-c1ccncn1`: the IC50 in assay [1] is more than 10000 nM; on GRK2 it was 20 nM.
Consider `Cn1c(CNc2cccc(C(=O)NCc3ccc(F)cc3)c2)nnc1-c1ccncn1`, for which the IC50 in assay [1] worked out at 2160 nM; at GRK2, 19 nM.
Consider `Cc1ccncc1CNC(=O)c1cccc(NCc2nnc(-c3ccncn3)n2C)c1`, for which the IC50 in assay [1] was determined as 557 nM; on GRK2 it was 13 nM.
`COc1ccnc(CNC(=O)c2cccc(NCc3nnc(-c4ccncn4)n3C)c2)c1F`: the IC50 in assay [1] is more than 10000 nM; on GRK2 it was 200 nM.
For `Cn1c(CNc2cccc(C(=O)NCc3cccc(C#N)c3F)c2)nnc1-c1ccncn1`, the IC50 in assay [1] was more than 10000 nM; on GRK2, 30 nM.
Take `CC(NC(=O)c1cccc(NCc2nnc(-c3ccncn3)n2C)c1)c1ncnn1C` (stereo not drawn): the IC50 in assay [1] was more than 10000 nM; at GRK2 it was 230 nM.
For the compound `Cc1cccnc1C(C)(C)NC(=O)c1cccc(NCc2nnc(-c3ccncn3)n2C)c1`, the values for the IC50 (in assay [1]; at GRK2) were more than 10000 nM and 630 nM, respectively.
Take `COc1c(C)cccc1CNC(=O)c1cccc(NCc2nnc(-c3ccncn3)n2C)c1`: the IC50 in assay [1] worked out at 2060 nM; at GRK2, 29 nM.
Take `COc1cccnc1CNC(=O)c1cccc(NCc2nnc(-c3ccncn3)n2C)c1`: the IC50 in assay [1] is more than 10000 nM; on GRK2 it was 290 nM.
The corresponding values for `CC(NC(=O)c1cccc(NCc2nnc(-c3ccncn3)n2C)c1)c1ccncc1F` (stereo not drawn) are 103 nM and 15 nM.
Turning to `COc1ncccc1CNC(=O)c1cccc(NCc2nnc(-c3ccncn3)n2C)c1`, the figures for the IC50 (in assay [1]; on GRK2) were more than 10000 nM and 70 nM, respectively.
The corresponding values for `Cc1ccncc1C(C)NC(=O)c1cccc(NCc2nnc(-c3ccncn3)n2C)c1` (stereo not drawn) are 537 nM and 50 nM.
The like results for `CCCC(NC(=O)c1cccc(NCc2nnc(-c3ccncn3)n2C)c1)c1ccccn1` (stereo not drawn) were, in that order, 1220 nM and 67 nM.
With `Cn1c(CNc2cccc(C(=O)NCc3ncnn3-c3ccccc3)c2)nnc1-c1ccncn1`, the IC50 in assay [1] is more than 10000 nM; on GRK2, 59 nM.
The corresponding values for `Cn1c(CNc2cccc(C(=O)NC(CCO)c3cccc(F)c3)c2)nnc1-c1ccncn1` (stereo not drawn) are more than 10000 nM and 37 nM.
As for `COCC(NC(=O)c1cccc(NCc2nnc(-c3ccncn3)n2C)c1)c1ccc(F)c(F)c1` (stereo not drawn), the results for the IC50 (in assay [1]; at GRK2) were 280 nM and 46 nM, respectively.
The like results for `Cn1c(CNc2cccc(C(=O)NC3(c4cccnc4)CC3)c2)nnc1-c1ccncn1` were, in that order, 583 nM and 200 nM.
As for `C[C@H](NC(=O)c1cccc(NCc2nnc(-c3ccncn3)n2C)c1)c1ccncc1`, the IC50 came out at 771 nM in assay [1] and 45 nM at GRK2.
In the case of `Cn1c(CNc2cccc(C(=O)NC3COc4cccc(F)c43)c2)nnc1-c1ccncn1` (stereo not drawn), the figures for the IC50 (in assay [1]; at GRK2) were more than 10000 nM and 12 nM, respectively.
In the case of `Cc1cccc2c1OCC[C@@H]2NC(=O)c1cccc(NCc2nnc(-c3ccncn3)n2C)c1`, the IC50 in assay [1] is more than 10000 nM; at GRK2, 15 nM.
The like results for `Cn1c(CNc2cccc(C(=O)C[C@H]3CCCc4cccnc43)c2)nnc1-c1ccncn1` were, in that order, 224 nM and 20 nM.
`Cc1csc(C2(NC(=O)c3cccc(NCc4nnc(-c5ccncn5)n4C)c3)CCC2)n1`: the values for the IC50 (in assay [1]; on GRK2) were 445 nM and 140 nM, respectively.
Regarding `Cn1c(CNc2cccc(C(=O)NC3(c4ccncn4)CC3)c2)nnc1-c1ccncn1`, the IC50 came out at 726 nM in assay [1] and 100 nM on GRK2.
For the compound `CC(C)C(NC(=O)c1cccc(NCc2nnc(-c3ccncn3)n2C)c1)c1ccncc1` (stereo not drawn), the IC50 in assay [1] came out at 1170 nM; on GRK2, 32 nM.
Take `Cn1c(CNc2cccc(C(=O)NCc3ncccc3C(F)(F)F)c2)nnc1-c1ccncn1`: the IC50 in assay [1] was more than 10000 nM; at GRK2 it was 17 nM.
The corresponding values for `C[C@H](NC(=O)c1cccc(NCc2nnc(-c3ccncn3)n2C)c1)C1NCCS1` (stereo partly drawn) are 172 nM and 150 nM.
The like results for `CC(NC(=O)c1cccc(NCc2nnc(-c3ccncn3)n2C)c1)c1ncccc1Br` (stereo not drawn) were, in that order, more than 10000 nM and 9.4 nM.
For `CCn1cnnc1CNC(=O)c1cccc(NCc2nnc(-c3ccncn3)n2C)c1`, the IC50 in assay [1] is more than 10000 nM; on GRK2 it was 72 nM.
The like results for `COc1cccc(F)c1C(C)NC(=O)c1cccc(NCc2nnc(-c3ccncn3)n2C)c1` (stereo not drawn) were, in that order, more than 10000 nM and 27 nM.
Regarding `COC[C@H](NC(=O)c1cccc(NCc2nnc(-c3ccncn3)n2C)c1)c1cccnc1`, the IC50 in assay [1] stood at 6110 nM; at GRK2 it was 46 nM.
In the case of `Cn1c(CNc2cccc(C(=O)NC(c3ccncc3)C3CCC3)c2)nnc1-c1ccncn1` (stereo not drawn), the IC50 turned out to be 136 nM in assay [1] and 22 nM at GRK2.
The corresponding values for `COc1cccc2c1CCC2NC(=O)c1cccc(NCc2nnc(-c3ccncn3)n2C)c1` (stereo not drawn) are 543 nM and 15 nM.
In the case of `Cn1c(CNc2cccc(C(=O)NCc3ccc(C[S+](C)[O-])cc3)c2)nnc1-c1ccncn1` (stereo not drawn), the IC50 was more than 10000 nM in assay [1] and 170 nM at GRK2.
With `CC(NC(=O)c1cccc(NCc2nnc(-c3ccncn3)n2C)c1)c1ccc2c(c1)CC(=O)N2C` (stereo not drawn), the IC50 in assay [1] is 158 nM; at GRK2, 21 nM.
As for `Cn1c(CNc2cccc(C(=O)NC3CCOc4ccccc43)c2)nnc1-c1ccncn1` (stereo not drawn), the values for the IC50 (in assay [1]; on GRK2) were 563 nM and 22 nM, respectively.
The corresponding values for `Cn1c(CNc2cccc(C(=O)NC(CO)c3cccc(C(F)(F)F)c3)c2)nnc1-c1ccncn1` (stereo not drawn) are more than 10000 nM and 34 nM.
Turning to `Cn1c(CNc2cccc(C(=O)NCc3nccc(Cl)c3F)c2)nnc1-c1ccncn1`, the IC50 in assay [1] is less than 39 nM; on GRK2, 220 nM.
